In one assay the test system is MCF7/R cells. As to the kind of experiment: Growth of doxorubicin-resistant tumors in nude mice. The note with it: Tetrac 30 mg/kg (Figure 17). It counts as in vivo.
For assay [1], the system named is SKN-SH, SaOS2, and MCF7 cells. The experiment in a line: Proliferation of drug-sensitive and drug-resistant cancer cells (MTT assay). The assay is classed as cell-based. The source says:
Cells were harvested and nuclear fractions prepared as described previously. Nucleoproteins, separated by gel electrophoresis, were immunoblotted with antibody to phosphorylated MAPK (pERK1 and pERK2, 44 and 42 kDa, respectively), followed by a second antibody linked to a luminescence-detection system. A β-action immunoblot of nuclear fractions serves as a control for gel loading in each part of this figure. […] The levels of FGF2 cDNA, shown in the top blot, were corrected for variations in GAPDH cDNA content, shown in the bottom blot, and the corrected levels of FGF2 are illustrated below in the graph (mean ±SE of mean; n = 2 experiments). […] Drug-sensitive and -resistant SKN-SH (Figures 13C-D), SaOS2 (Figures 13A-B), and MCF7 (Figures 13E-F) cells were subjected to treatment with increasing concentrations of Tetrac or Doxirubicin over a period of 4 days. Cell viability was then measured by MTT assay. […] The cells were treated for 24 h with each drug alone or the combination of both, after that, expression of drug resistance molecules was determined by Western blot using specific antibodies. […] The cells were incubated for 24 hours with doxorubicin in the absence or the presence of Tetrac, after that they were washed and then solubilized. […]
(In general: Tetrazolium assays rely on reduction of a dye to a coloured formazan, in cell work by metabolically active cells.)

For a further assay, the system named is Matrigel plugs. As to the kind of experiment: Mouse Matrigel model of angiogenesis (plug hemoglobin). It counts as in vivo, mice (C57BL/6NCr). As to the method:
Normal male mice (C57BL/6NCr) 6-8 weeks of age and weighing ~20 g were purchased from Taconic farm. Animals were housed 4 per cage, in controlled conditions of temperature (20-24 °C); humidity (60-70%) and 12 hrs. light/dark cycle provided with food and water ad libitum. […] Matrigel (BD Bioscience, San Jose CA) was thawed overnight at 4 °C and placed on ice. Aliquots of matrigel were placed into cold polypropylene tubes to prevent the matrigel from solidifying and the angiogenesis promoter added to matrigel with or without agonist. Mice were treated daily. Matrigel was subcutaneously injected as triple injection per animal at 100 µL/animal. At day 14 post plug implant all animals were killed in CO2 chamber and matrigel plugs were collected. […]
The matrigel plugs dissected from the mice were carefully stripped of any remaining peritoneum. The plugs were placed into 0.5 mL tube of ddH2O and homogenized for 5-10 min. […] Absorbance was read with a Microplate Manager ELISA reader at 540 nm. […] Hemoglobin concentration is a reflection of the number of blood vessels in the plugs.

The test system of another assay is GL261 cells. As to the kind of experiment: Potentially lethal damage repair (PLDR). It counts as cell-based, murine. As to the method: PLDR was also measured using the 10% survival level in both control and Tetrac treated-cells, and was also done for both exponentially growing and plateau phase cells. The total 10% survival dose was given, and then cells were placed back into the 37°C incubator for various periods of time. At 0, 0.5, 1.0, 1.5, 2.0, 3.0, 4.0, 6.0, 8.0, and 10.0 hours, flasks were removed, and processed for survival assessment.
To investigate the effects of Tetrac on SLDR and PLDR, cells were chosen that had been given a one-hour treatment with Tetrac at two different times, i.e., at 70 and 270 hours post-seeding).

Turning to `O=C(O)Cc1cc(I)c(Oc2cc(I)c(O)c(I)c2)c(I)c1` [Tetrac, 3,3',5,5'-tetraiodothyroacetic acid], the “growth of drug resistant tumors in nude mice” value in the assay with MCF7/R cells is recorded as “effective in suppressing the growth”. The “anti-proliferative activity in vitro against drug-sensitive and drug-resistant cells” value in assay [1] (4 days, MTT (Figure 13)) is “equivalent”. For the same compound, in assay [1] (resistant SKN-SH/R, MCF7/R and SaOS2/R cells (Figure 14)), the “cellular responses to doxorubicin, etoposide, cisplatin and TSA when combined with Tetrac” value is “significantly enhanced”. Further, the “Hemoglobin (mg/mL)± SEM” value was found to be 0.5 ± 0.1 mg/mL in the assay on Matrigel plugs (FGF 100 ng + compound 10 µg/plug, n= 7-14) and 0.4 ± 0.1 mg/mL in the assay on Matrigel plugs (T4 + antagonist, each 10 µg/matrigcl plug). Moreover, the “Mean inhibition of angiogenesis (%)” value with Matrigel plugs (FGF-induced angiogenesis, 10 µg/plug) stood at 85%. Further, the “factor by which Tetrac inhibited PLDR” value in the assay with GL261 cells (exponential cells) amounted to 1.9. Besides, the “factor by which Tetrac decreased PLDR expression” value in the assay on GL261 cells (plateau phase cells) was 3.4.

Values taken from EP2662079A1 (Ordway Research Institute, Inc., priority 2012, dated 2013).
